Experimental data from US20220211703A1, “METHOD FOR TREATING COUGH BY USING DIAMINOPYRIMIDINE COMPOUND” (BEIJING TIDE PHARMACEUTICAL CO., LTD., priority 2019, published 2022).
pIC50: −log10 of the molar value.

What was measured:
[1] = system: Dunkin-Hartley guinea pigs; assay: Effect on the guinea pig cough model (ATP or histamine plus citric acid induced cough); format: in vivo; conditions: oral administration 30 minutes to 1 hour before inducing cough, 250 uM ATP or 0.6 mM histamine then 0.5 M citric acid nebulized, FIG. 1 to FIG. 3 (doses 5.1-92 mg/kg)
Description: In this test, dextromethorphan (purchased from Shanghai Send Pharmaceutical Technology Co., Ltd.) was used as a positive control compound. A clinical control compound having the following structure was employed, and it was prepared according to the method described in WO 2008/040652 A1:
Test animals were 300-350 g Dunkin-Hartley guinea pigs (purchased from Shanghai Jiagan Biotechnology Co., Ltd). After being purchased and adaptively fed for one week, the animals were randomly divided into groups based on body weight, each test group comprising 10-15 test animals The vehicle (a 0.5% CMCNa solution), the test compounds, the positive control compound (dextromethorphan) or the clinical control compound were orally administrated (compounds at test dosages were respectively added to a 0.5% CMCNa solution, uniformly dispersed through thorough ultrasonic treatment; the solution was vortex mixed again before administration to each animal, and the test dosage ranged from 1 mg/kg to 100 mg/kg). Administration was performed 30 minutes to 1 hour before inducing cough.
Method of inducing cough: test animals were put in a body pneumotachograph (Buxco) and allowed to stand for several minutes. […] Starting from the nebulization of citric acid, the number of coughs of the animals in 10 minutes were recorded by employing a small animal pulmonary function detector (Buxco).

P2X3 [2] = biological target: T1, P2X3 (Homo sapiens, UniProt P56373); assay: Inhibition on the P2X3-mediated current in 1321N1 cell line stably transfected with P2X3 (whole-cell patch clamp); format: cell-based; conditions: 1321N1 P2X3 stable transfected cells, clamping potential -60 mV, 5 minutes pre-treatment, Hill equation fit; read-out: IC50, inhibition of P2X3-mediated current induced by 10 μM Na2ATP
T1 construct: expressed in transfected cells; host or cells: 1321N1 cells, stably transfected
T1 sequence (P56373 1-397): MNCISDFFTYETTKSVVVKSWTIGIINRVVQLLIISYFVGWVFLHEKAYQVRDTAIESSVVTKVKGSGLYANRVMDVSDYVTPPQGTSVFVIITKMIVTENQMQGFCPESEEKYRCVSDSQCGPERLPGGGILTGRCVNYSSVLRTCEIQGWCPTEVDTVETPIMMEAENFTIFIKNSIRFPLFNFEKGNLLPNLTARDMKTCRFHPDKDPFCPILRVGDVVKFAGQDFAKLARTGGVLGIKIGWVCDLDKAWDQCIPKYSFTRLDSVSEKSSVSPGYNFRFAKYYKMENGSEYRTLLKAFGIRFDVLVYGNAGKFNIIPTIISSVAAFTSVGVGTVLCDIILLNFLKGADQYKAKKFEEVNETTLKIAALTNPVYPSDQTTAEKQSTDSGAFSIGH
Description: Membrane current was recorded by employing HEKA EPC-10 patch clamp amplifier and PATCHMASTER acquisition system. 1321N1 P2X3 stable transfected cells were transferred to an about 1 ml bath embedded in an inverted microscope platform, and an extracellular fluid (2 mM CaCl2, 1 mM MgCl2, 5 mM KCl, 155 mM NaCl, 12 mM glucose and 10 mM HEPES (pH=7.4)) was perfused by using a gravitational perfusion system. The P2X3-mediated current of a single cell was recorded in a whole cell recording mode. After formation of a gigaseal and rapture of the membrane, clamping potential was set at −60 mV. 10 μM Na2ATP was perfused for 5 seconds, and the P2X3-mediated current induced at this point was taken as a control current. The cells were then treated with a solution of compound 66 at a specific concentration (prepared with the extracellular fluid) for 5 minutes. The solution of compound 66 at this concentration and 10 μM Na2ATP were co-applied to induce a cell current (see FIG. 4 for the effect of the compound on the current), and an inhibition rate relative to the control current was calculated according to the following formula:
(§1) Inhibition Rate Relative to the Control Current=(1−I2/I1)*100%
(§2) wherein I1 represents the control current, and I2 represents the current after application of compound 66. […]

P2X3 [3] = biological target: T2, P2X3 (Rattus norvegicus, UniProt P49654); assay: Inhibition on the P2X3-mediated current in ex vivo cultured rat dorsal root ganglion (whole-cell patch clamp); format: cell-based; conditions: primary cells of rat DRG, clamping potential -60 mV, 5 minutes pre-treatment, Hill equation fit; read-out: IC50, inhibition of P2X3-mediated current induced by 30 μM a,b-Me ATP
T2 construct: The primary cells of rat DRG were transferred; endogenous in cells; host or cells: primary rat dorsal root ganglion cells, cultured ex vivo
T2 sequence (P49654 1-397): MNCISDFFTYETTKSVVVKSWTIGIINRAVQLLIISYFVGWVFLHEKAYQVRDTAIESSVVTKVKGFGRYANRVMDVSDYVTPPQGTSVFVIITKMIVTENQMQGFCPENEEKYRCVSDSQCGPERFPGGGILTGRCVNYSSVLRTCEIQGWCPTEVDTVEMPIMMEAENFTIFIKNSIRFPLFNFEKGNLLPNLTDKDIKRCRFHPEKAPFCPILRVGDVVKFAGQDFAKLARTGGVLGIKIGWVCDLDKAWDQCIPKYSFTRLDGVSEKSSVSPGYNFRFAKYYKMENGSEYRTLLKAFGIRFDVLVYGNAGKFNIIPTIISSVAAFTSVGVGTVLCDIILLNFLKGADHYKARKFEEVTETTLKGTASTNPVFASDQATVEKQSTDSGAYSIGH
Description: Membrane current was recorded by employing HEKA EPC-10 patch clamp amplifier and PATCHMASTER acquisition system. The primary cells of rat DRG were transferred to an about 1 ml bath embedded in an inverted microscope platform, and an extracellular fluid (2 mM CaCl2, 1 mM MgCl2, […] KCl, 155 mM NaCl, 12 mM glucose and 10 mM HEPES (pH=7.4)) was perfused by using a gravitational perfusion system. The P2X3-mediated current of a single cell was recorded in a whole cell recording mode. After formation of a gigaseal and rapture of the membrane, clamping potential was set at −60 mV. 30 μM a,b-Me ATP (also known as “α,β-meATP”) was perfused for 5 seconds, and the P2X3-mediated current induced at this point was taken as a control current. The cells were then treated with a solution of compound 66 at a specific concentration (prepared with the extracellular fluid) for 5 minutes. The solution of compound 66 at this concentration and 30 μM a,b-Me ATP were co-applied to induce a cell current (see FIG. 6 for the effect of the compound on the current), and an inhibition rate relative to the control current was calculated according to the following formula:
as §1, §2

SMILES | antitussive effect (number of coughs in 10 minutes) [1] | pIC50 (P2X3 [2]) | pIC50 (P2X3 [3])
CNc1cc(Oc2cnc(N)nc2N)c(C(C)C)cn1 [Compound 22] | significant antitussive effect, which was better than that of the clinical control compound |  | 
C#Cc1cc(Oc2cnc(N)nc2N)c(C(C)C)cn1 [Compound 66] | significant antitussive effect, which was better than that of the clinical control compound | 7.58 | 7.55
